Test results from publication PMC12000319, “Proton conductance by human uncoupling protein 1 is inhibited by purine and pyrimidine nucleotides” (The EMBO Journal, 2025).
“And” between values parts separate entries of the source, which are not always exact repeats. Identical values can stand only once. Like-named read-outs stand apart in the source and are kept apart here.

Key:
[1] = test system: UCP1; parameters: method as in Heaton and Nicholls, 1977; Divakaruni et al, 2012; conditions: whole mitochondria; ref Heaton and Nicholls, 1977; Divakaruni et al, 2012; cited from earlier work
[2] = biological target: T1, UCP1 (Homo sapiens, UniProt P25874); experiment: Differential scanning fluorimetry (nanoDSF) thermal stability shift assay; assay type: binding; conditions: for ΔTm at 1000 µM: read-out: thermal shift (ΔTm)
T1 construct: His8 (N, cleaved yes); Factor Xa protease cleavage site (N, cleaved yes); made in house; host or cells: Saccharomyces cerevisiae strain W303.1B
T1 sequence (P25874 1-307): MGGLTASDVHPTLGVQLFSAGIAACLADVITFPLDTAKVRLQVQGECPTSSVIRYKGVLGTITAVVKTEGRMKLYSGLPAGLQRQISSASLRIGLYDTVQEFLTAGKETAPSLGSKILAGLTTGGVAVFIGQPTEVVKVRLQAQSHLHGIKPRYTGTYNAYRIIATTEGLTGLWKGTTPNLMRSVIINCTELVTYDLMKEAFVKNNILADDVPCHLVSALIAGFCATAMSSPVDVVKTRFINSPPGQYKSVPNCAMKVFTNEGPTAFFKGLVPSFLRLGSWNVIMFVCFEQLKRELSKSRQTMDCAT

[3] = biological target: T2, human DIC (SLC25A10) (Homo sapiens, UniProt Q9UBX3); experiment: as above; assay type: binding; conditions: 1 mM nucleotide, pH 6.0, single repeats (source data Fig. 4A)
T2 construct: His8 (N, cleaved yes); Factor Xa protease cleavage site (N, cleaved yes); made in house; host or cells: Saccharomyces cerevisiae protease-deficient strain BJ2186
T2 sequence (Q9UBX3 1-287): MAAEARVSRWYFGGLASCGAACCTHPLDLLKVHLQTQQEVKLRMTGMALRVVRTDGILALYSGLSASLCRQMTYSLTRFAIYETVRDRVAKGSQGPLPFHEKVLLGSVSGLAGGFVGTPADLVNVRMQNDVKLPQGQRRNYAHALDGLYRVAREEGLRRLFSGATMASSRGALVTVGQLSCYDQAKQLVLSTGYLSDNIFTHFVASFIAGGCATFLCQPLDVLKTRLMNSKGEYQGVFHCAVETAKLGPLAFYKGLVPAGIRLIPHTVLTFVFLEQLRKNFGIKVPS
From the text: UCP1 is phylogenetically related to mitochondrial dicarboxylate carriers, gaining thermogenic properties as a later evolutionary development (Hughes et al, [2009]; Robinson et al, [2008]). The mitochondrial dicarboxylate carrier (DIC, SLC25A10) and oxoglutarate carrier (OGC, SLC25A11) are most closely related to UCP1 (Gaudry et al, [2019]; Hughes et al, [2009]) and share many residues involved in nucleotide binding in UCP1, such as the arginine triplet at the contact points, R92 and Q85 (Jones et al, [2024]). Given the similarity of the central cavity of UCP1, OGC and DIC, we tested whether the dicarboxylate carriers have the ability to bind nucleotides. For this purpose, we purified human DIC and OGC, and tested whether nucleotides were able to generate a thermostability shift, as observed for their physiological substrates (Pyrihová et al, [2024]). However, all tested nucleotides caused a negligible shift with both DIC or OGC at all pH values tested between 6.0 and 8.0 (Fig. 4A; Appendix Fig. S5). Thus, despite having many residues in common (Fig. 4B–D), UCP1 has evolved to have a few specific residues that allow high-affinity binding of nucleotides without a strong selection for nucleobase.
Differential scanning fluorimetry (nanoDSF) (Alexandrov et al, [2008]) was carried out with 2 µg UCP1, DIC or OGC protein (100 mM MES/HEPES, pH range 6.0–8.0, 25 mM NaCl, 1 mM TCEP, 0.01% lauryl maltose neopentyl glycol and 0.01 mg/mL tetraoleoyl cardiolipin) and, when required, 1 mM nucleotide, as indicated. The proteins have the following number of tryptophans: UCP1 (two); OGC (two); DIC (one). The samples were loaded into nanoDSF-grade standard glass capillaries. The temperature was increased by […] every minute from 25 to 95 °C, the intrinsic fluorescence was measured in a Prometheus NT.48 nanoDSF device, and the apparent Tm was calculated with the PR.ThermControl software (NanoTemper Technologies).

[4] = biological target: T1, UCP1; experiment: Isothermal titration calorimetry of nucleotide binding; parameters: isotherm data point (enthalpy change per injection): unit not given here; conditions: for isotherm data point (enthalpy change per injection): representative isotherm;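 for all read-outs here: purified human UCP1 in cacodylate buffer with lauryl maltose neopentyl glycol and cardiolipin, titrated with nucleotides, isotherms fitted by one-site model yielding ΔH, Kd and stoichiometry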

Nc1ccn([C@@H]2O[C@H](COP(=O)(O)OP(=O)(O)O)[C@@H](O)[C@H]2O)c(=O)n1 [CDP]
competition with GDP binding [1]: unable to displace the binding of GDP

Nc1ccn(C2OC(COP(=O)(O)OP(=O)(O)OP(=O)(O)O)C(O)C2O)c(=O)n1 (stereo not drawn) [CTP]
temperature shift (ΔTm) ([2]; 1 mM nucleotide, pH 6.0, detergent-solubilised UCP1, mean of three biological repeats): 12.5 °C | ΔTm at 1000 µM ([2]; pH 6, 1 mM nucleotide, pH 6.0, single repeats (source data Fig. 1D)): 12.3 °C | ΔTm at 1000 µM ([2]; pH 6.5, 1 mM nucleotide, pH 6.5, single repeats (source data Fig. 1D)): 7.9 °C | ΔTm at 1000 µM ([2]; pH 7, 1 mM nucleotide, pH 7.0, single repeats (source data Fig. 1D)): 4.4 °C | competition with GDP binding [1]: unable to displace the binding of GDP | change in apparent melting temperature (ΔTm) of hDIC [3]: 0.0 | binding affinity to UCP1 (in words) ([4]; ITC): lowest affinity | Kd ([4]; ITC, pH 6.0, 20 °C, mean ± standard deviation of three biological repeats (Fig. 2A-E)): 4.85 ± 0.69 µM | Kd ([4]; ITC, single biological repeats (source data Fig. 2F)): 5.47 µM and 4.96 µM and 4.11 µM | isotherm data point (enthalpy change per injection) ([4]; Molar ratio (Nucleotide/UCP) 0.120417, pH 6.0, 20 °C): -22.2743 | isotherm data point (enthalpy change per injection) ([4]; Molar ratio (Nucleotide/UCP) 0.181226, pH 6.0, 20 °C): -21.186 | isotherm data point (enthalpy change per injection) ([4]; Molar ratio (Nucleotide/UCP) 0.242439, pH 6.0, 20 °C): -19.9722 | isotherm data point (enthalpy change per injection) ([4]; Molar ratio (Nucleotide/UCP) 0.304059, pH 6.0, 20 °C): -20.0539 | isotherm data point (enthalpy change per injection) ([4]; Molar ratio (Nucleotide/UCP) 0.366087, pH 6.0, 20 °C): -20.6988 | isotherm data point (enthalpy change per injection) ([4]; Molar ratio (Nucleotide/UCP) 0.428528, pH 6.0, 20 °C): -18.255 | isotherm data point (enthalpy change per injection) ([4]; Molar ratio (Nucleotide/UCP) 0.491383, pH 6.0, 20 °C): -16.7607 | isotherm data point (enthalpy change per injection) ([4]; Molar ratio (Nucleotide/UCP) 0.554656, pH 6.0, 20 °C): -16.5202 | isotherm data point (enthalpy change per injection) ([4]; Molar ratio (Nucleotide/UCP) 0.618348, pH 6.0, 20 °C): -14.6191 | isotherm data point (enthalpy change per injection) ([4]; Molar ratio (Nucleotide/UCP) 0.682464, pH 6.0, 20 °C): -13.3617 | isotherm data point (enthalpy change per injection) ([4]; Molar ratio (Nucleotide/UCP) 0.747006, pH 6.0, 20 °C): -10.6677 | isotherm data point (enthalpy change per injection) ([4]; Molar ratio (Nucleotide/UCP) 0.811976, pH 6.0, 20 °C): -10.8499 | isotherm data point (enthalpy change per injection) ([4]; Molar ratio (Nucleotide/UCP) 0.877378, pH 6.0, 20 °C): -10.2913 | isotherm data point (enthalpy change per injection) ([4]; Molar ratio (Nucleotide/UCP) 0.943214, pH 6.0, 20 °C): -8.027 | isotherm data point (enthalpy change per injection) ([4]; Molar ratio (Nucleotide/UCP) 1.00949, pH 6.0, 20 °C): -6.97 | isotherm data point (enthalpy change per injection) ([4]; Molar ratio (Nucleotide/UCP) 1.0762, pH 6.0, 20 °C): -6.038 | isotherm data point (enthalpy change per injection) ([4]; Molar ratio (Nucleotide/UCP) 1.14336, pH 6.0, 20 °C): -5.024 | isotherm data point (enthalpy change per injection) ([4]; Molar ratio (Nucleotide/UCP) 1.21096, pH 6.0, 20 °C): -4.446 | isotherm data point (enthalpy change per injection) ([4]; Molar ratio (Nucleotide/UCP) 1.27901, pH 6.0, 20 °C): -2.802 | isotherm data point (enthalpy change per injection) ([4]; Molar ratio (Nucleotide/UCP) 1.34751, pH 6.0, 20 °C): -2.027 | isotherm data point (enthalpy change per injection) ([4]; Molar ratio (Nucleotide/UCP) 1.41647, pH 6.0, 20 °C): -1.98 | isotherm data point (enthalpy change per injection) ([4]; Molar ratio (Nucleotide/UCP) 1.48589, pH 6.0, 20 °C): -0.1226 | isotherm data point (enthalpy change per injection) ([4]; Molar ratio (Nucleotide/UCP) 1.55577, pH 6.0, 20 °C): -0.8262 | isotherm data point (enthalpy change per injection) ([4]; Molar ratio (Nucleotide/UCP) 1.62611, pH 6.0, 20 °C): -0.604 | isotherm data point (enthalpy change per injection) ([4]; Molar ratio (Nucleotide/UCP) 1.69692, pH 6.0, 20 °C): -1.2037 | isotherm data point (enthalpy change per injection) ([4]; Molar ratio (Nucleotide/UCP) 1.76819, pH 6.0, 20 °C): -0.3877 | isotherm data point (enthalpy change per injection) ([4]; Molar ratio (Nucleotide/UCP) 1.83995, pH 6.0, 20 °C): 0.4921 | isotherm data point (enthalpy change per injection) ([4]; Molar ratio (Nucleotide/UCP) 1.91217, pH 6.0, 20 °C): -0.1525 | isotherm data point (enthalpy change per injection) ([4]; Molar ratio (Nucleotide/UCP) 1.98488, pH 6.0, 20 °C): -0.1288
